Test results published in ChEMBL document CHEMBL1127696, “Non-peptide renin inhibitors containing 2-(((3-phenylpropyl)phosphoryl)oxy)alkanoic acid moieties as P2-P3 replacements” (J Med Chem, 1994).

Tests used:
Pepsin A = Pepsin A (Sus scrofa, UniProt P00791); assay: In vitro inhibition of porcine pepsin.
Cathepsin D = molecular target: T1, Cathepsin D (Bos taurus, UniProt P80209); assay: In vitro inhibition of bovine cathepsin D.
T1 sequence (P80209 whole entry): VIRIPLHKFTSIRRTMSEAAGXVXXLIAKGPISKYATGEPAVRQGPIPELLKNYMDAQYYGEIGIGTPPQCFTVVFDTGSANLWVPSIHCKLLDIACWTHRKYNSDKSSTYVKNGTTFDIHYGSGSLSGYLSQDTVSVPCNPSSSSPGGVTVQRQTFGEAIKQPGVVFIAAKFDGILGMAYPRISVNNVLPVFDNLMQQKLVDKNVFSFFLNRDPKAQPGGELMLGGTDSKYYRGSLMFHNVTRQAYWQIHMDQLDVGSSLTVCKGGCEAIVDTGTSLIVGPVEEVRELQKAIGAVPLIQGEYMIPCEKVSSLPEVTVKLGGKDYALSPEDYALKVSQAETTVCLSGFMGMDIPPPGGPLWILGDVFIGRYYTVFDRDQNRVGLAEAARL

Renin = molecular target: T2, Renin (Homo sapiens, UniProt P00797); assay: In vitro inhibition of human renin.
T2 sequence (P00797 whole entry): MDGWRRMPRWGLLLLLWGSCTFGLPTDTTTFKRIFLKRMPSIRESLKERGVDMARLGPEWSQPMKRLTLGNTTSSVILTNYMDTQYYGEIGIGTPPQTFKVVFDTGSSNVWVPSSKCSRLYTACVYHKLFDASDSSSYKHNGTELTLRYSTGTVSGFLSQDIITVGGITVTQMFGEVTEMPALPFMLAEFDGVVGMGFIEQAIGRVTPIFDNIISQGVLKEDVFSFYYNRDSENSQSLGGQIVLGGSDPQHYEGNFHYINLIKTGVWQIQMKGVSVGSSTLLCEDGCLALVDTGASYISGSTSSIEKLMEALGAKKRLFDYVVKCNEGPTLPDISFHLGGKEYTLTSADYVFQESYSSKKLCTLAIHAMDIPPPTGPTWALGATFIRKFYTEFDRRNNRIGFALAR

Chain of Pepsin A (P00791 whole entry): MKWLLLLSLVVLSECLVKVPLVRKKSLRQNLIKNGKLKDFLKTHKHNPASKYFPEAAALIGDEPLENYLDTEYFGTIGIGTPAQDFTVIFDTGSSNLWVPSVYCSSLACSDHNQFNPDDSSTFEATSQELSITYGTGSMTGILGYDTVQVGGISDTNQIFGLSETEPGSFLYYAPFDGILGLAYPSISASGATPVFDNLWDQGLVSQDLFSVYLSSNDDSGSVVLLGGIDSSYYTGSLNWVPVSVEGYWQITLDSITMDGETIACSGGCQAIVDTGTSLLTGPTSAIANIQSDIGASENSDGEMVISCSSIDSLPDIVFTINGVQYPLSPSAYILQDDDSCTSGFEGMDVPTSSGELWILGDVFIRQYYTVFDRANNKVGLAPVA

| Structure (SMILES) | IC50 (Pepsin A) [µM] | IC50 (Cathepsin D) [µM] | IC50 (Renin) [µM] |
| --- | --- | --- | --- |
| CCCCNC(=O)[C@H](C)C[C@H](O)[C@H](CC1CCCCC1)NC(=O)[C@@H](CCC)OP(=O)(O)CCCc1ccccc1 | > 10 | > 10 | 0.0038 |
| CCCC[C@H](OP(=O)(O)CCCc1ccccc1)C(=O)N[C@@H](CC1CCCCC1)[C@@H](O)C(O)CC(C)C (stereo partly drawn) | > 10 | > 10 | 0.025 |
| CCCC[C@H](OP(=O)(O)CCCc1ccccc1)C(=O)N[C@@H](CC1CCCCC1)[C@@H](O)CC(=O)N[C@@H](C(=O)NCc1cnc(C)nc1N)[C@@H](C)CC | > 10 | > 10 | 0.058 |
| CCCCNC(=O)[C@H](C)C[C@H](O)[C@H](CC1CCCCC1)NC(=O)[C@H](CCC)OP(=O)(O)CCCc1ccccc1 | > 10 | > 10 | 0.0042 |
| CCCCNC(=O)[C@H](C)C[C@H](O)[C@H](CC1CCCCC1)NC(=O)[C@@H](CCCC)OP(=O)(CCCc1ccccc1)OCC (stereo in doubt; 7i) | > 10 | > 10 | 0.0225 |
| CCCCNC(=O)[C@H](C)C[C@H](O)[C@H](CC1CCCCC1)NC(=O)[C@@H](CCCC)OP(=O)(CCCc1ccccc1)OCC (stereo in doubt; 7j) | > 10 | > 10 | 0.35 |
| CCCCNC(=O)[C@H](C)C[C@H](O)[C@H](CC1CCCCC1)NC(=O)[C@H](CCCC)OP(=O)(CCCc1ccccc1)OCC (stereo in doubt; 7k) | > 10 | 2.8 | 0.015 |
| CCCCNC(=O)[C@H](C)C[C@H](O)[C@H](CC1CCCCC1)NC(=O)[C@H](CCCC)OP(=O)(CCCc1ccccc1)OCC (stereo in doubt; 7l) | > 10 | > 10 | 0.215 |
| CCC[C@@H](OP(=O)(CCCc1ccccc1)OCC)C(=O)N[C@@H](CC1CCCCC1)[C@@H](O)[C@@H](O)CC(C)C (stereo in doubt; 8f) | > 10 | 2.15 | 0.0177 |
| CCC[C@@H](OP(=O)(CCCc1ccccc1)OCC)C(=O)N[C@@H](CC1CCCCC1)[C@@H](O)[C@@H](O)CC(C)C (stereo in doubt; 8g) | > 10 | > 10 | 0.13 |
| CCC[C@@H](OP(=O)(CCCc1ccccc1)OCC)C(=O)N[C@@H](CC1CCCCC1)[C@@H](O)[C@@H](O)C1CC1 (stereo in doubt; 8h) | > 10 | 4.15 | 0.02 |
| CCC[C@@H](OP(=O)(CCCc1ccccc1)OCC)C(=O)N[C@@H](CC1CCCCC1)[C@@H](O)[C@@H](O)C1CC1 (stereo in doubt; 8i) | > 10 | > 10 | 0.155 |

Second part, the molecule after the results:

| IC50 (Pepsin A) [µM] | IC50 (Cathepsin D) [µM] | IC50 (Renin) [µM] | Structure (SMILES) |
| --- | --- | --- | --- |
| > 10 | > 10 | 0.016 | CCCCNC(=O)[C@H](C)C[C@H](O)[C@H](CC1CCCCC1)NC(=O)[C@@H](C)OP(=O)(O)CCCc1ccccc1 |
| > 10 | > 10 | 0.36 | CCCCNC(=O)[C@@H](C)C[C@@H](O)[C@@H](CC1CCCCC1)NC(=O)[C@H](CCCC)OP(=O)(O)CCCCc1ccccc1 |
| > 10 | > 10 | 0.0025 | CCCCNC(=O)[C@H](C)C[C@H](O)[C@H](CC1CCCCC1)NC(=O)[C@H](CCCC)OP(=O)(O)CCCc1ccccc1 |
| > 10 | > 10 | 0.0175 | CCCCNC(=O)[C@H](C)C[C@H](O)[C@H](CC1CCCCC1)NC(=O)[C@H](C)OP(=O)(O)CCCc1ccccc1 |
| > 10 | > 10 | 0.115 | CCCC[C@H](OP(=O)(O)CCCc1ccccc1)C(=O)N[C@@H](CC1CCCCC1)[C@@H](O)CCSc1ccccn1 |
| > 10 | > 10 | 0.055 | CCCC[C@H](OP(=O)(O)CCCc1ccccc1)C(=O)N[C@@H](CC1CCCCC1)[C@@H](O)C(=O)OC(C)C |
| > 10 | > 10 | 0.046 | CCCCNC(=O)[C@@H](C)C[C@@H](O)[C@@H](CC1CCCCC1)NC(=O)[C@H](CCCC)OP(=O)(O)CCc1ccccc1 |
| > 10 | > 10 | 0.0048 | CCCCNC(=O)[C@@H](C)C[C@@H](O)[C@@H](CC1CCCCC1)NC(=O)[C@H](CCCC)OP(=O)(O)CCCc1ccccc1 |
| 10 | 2.3 | 0.0028 | CCCCNC(=O)[C@@H](C[C@H](O)[C@H](CC(C)C)NC(=O)[C@H](CCCC)OP(=O)(O)CCCc1ccccc1)C(C)C |
